Where “and” joins values, the source holds several entries; their conditions need not be identical. Equal entries are not always repeated. Structures can show the parent of a compound that is named as a salt. Where two headings read alike, the source gives them in different places.
How the values were obtained:
[1] = RP-HPLC retention on XTerra RP18, methanol/buffer; extrapolated retention factor log kw and slope S; format: physicochemical; conditions: for log kw: intercept, extrapolated to 100 % buffer, methanol/buffer, 25 °C; for S (slope): slope of log k vs methanol volume fraction
Protocol: All measurements were performed at 25°C with a constant flow rate of 0.8 mL min^-1 and UV detection in the range of 200-280 nm. The injection volume was 20 μL. […] The retention factor k was calculated for each mobile phase composition according to Equation (1):
where tr is the retention time of the tested compound and t0 is the dead volume measured with KNO3 as a non-retentive marker. The values corresponding to 100 % of the buffered eluent (log kw) were determined by extrapolation according to Equation (2):
where log kw is the intercept, S is the slope of the regression line, and φ is the volume fraction of the organic modifier in the mobile phase.
The retention behaviour in HPLC system was monitored by calculating extrapolated retention factors log kw corresponding to pure buffer as mobile phase.

[2] = Capillary electrophoresis, effective electrophoretic mobility (acetone as EOF marker); format: physicochemical; conditions: for µeff4.4 / μeff4.4 (effective electrophoretic mobility): pH 4.4; for µeff4.4 / µeff7.4 / µeff9.1: I = 25 mmol/L, 11 kV, 25 °C, three replicates; for μeff7.4 (effective electrophoretic mobility, text) / µeff7.4: pH 7.4; for μeff9.1 (effective electrophoretic mobility) / µeff9.1: pH 9.1
Protocol: All experiments were performed using the SpectraPhoresis 500-capillary electrophoresis system (Spectra Physics Analytical, USA) with UV detector. Data were recorded and analyzed using ChromQuest software version 4.0 (Thermo Finnigan, USA).
The separations were performed with an uncoated fused capillary (total length 31.5 cm, 50 μm id, effective length 24 cm, Polymicro Technologies, USA) applying a voltage of 11 kV and at 25 °C. The samples were injected hydrodynamically and detection was performed in the 200-280 nm range. The new capillary was rinsed stepwise with 0.1 M NaOH (15 min), water (10 min) and a running buffer (10 min). Finally, a 10 min high voltage was applied through the background electrolyte-filled capillary to equalize the inner surface, stabilize the electroosmotic flow and ensure good reproducibility of injections from run to run. […] Between runs, the capillary was rinsed with the background electrolyte for 1 minute.
where Lt is the total length of the capillary (cm), Leff is the effective length of the capillary (cm), U is the applied voltage (V), tm is the migration time of the analyte (s) and teof is the migration time of the electroneutral EOF marker acetone (s). The calculated μeff values (μeff4.4, μeff7.4 and μeff9.1) were used as dependent variables in QSMR analysis.

[3] = cited from earlier work

| Structure (SMILES) | log kw ([1]; pH 4.4) | S (slope) ([1]; pH 4.4) | log kw ([1]; pH 7.4) | S (slope) ([1]; pH 7.4) | log kw ([1]; pH 9.1) | S (slope) ([1]; pH 9.1) | µeff4.4 [2] | μeff7.4 (effective electrophoretic mobility, text) [2] | µeff7.4 [2] | μeff9.1 (effective electrophoretic mobility) [2] | µeff9.1 [2] | pKa experimental ([3]; spectrophotometric, ref 15 (Supplement reference list)) | pKa experimental ([3]; voltammetric, ref 6 (Supplement reference list)) | μeff4.4 (effective electrophoretic mobility) [2] | pKa experimental ([3]; pH titration, ref 4 (Supplement reference list)) | pKa experimental ([3]; HPLC, ref 7 (Supplement reference list)) | μeff7.4 (effective electrophoretic mobility, text) ([2]; listed as clopamide) | log kw ([1]; pH 4.4, listed as carvedilol) |
| --- | --- | --- | --- | --- | --- | --- | --- | --- | --- | --- | --- | --- | --- | --- | --- | --- | --- | --- |
| Nc1nc(N)c2nc(-c3ccccc3)c(N)nc2n1 [Triamterene, triamterene] | 1.75 ± 0.05 | -3.96 ± 0.14 | 1.92 ± 0.05 | -3.76 ± 0.12 | 1.93 ± 0.04 | -3.75 ± 0.11 | 22.146 ± 0.019 10^-5 cm^2 V^-1 s^-1 | 1.140±0.053 10^-5 cm^2 / V s | 1.140 ± 0.053 10^-5 cm^2 V^-1 s^-1 | zero | 0.000 ± 0.000 10^-5 cm^2 V^-1 s^-1 | 7.16 |  |  |  |  |  |  |
| COc1cc2nc(N3CCN(C(=O)C4COc5ccccc5O4)CC3)nc(N)c2cc1OC (stereo not shown) [Doxazosin, doxazosin mesilat] | 3.42 ± 0.07 | -5.56 ± 0.14 | 3.67 ± 0.11 | -5.05 ± 0.19 | 3.60 ± 0.11 | -4.95 ± 0.20 | 15.795 ± 0.013 10^-5 cm^2 V^-1 s^-1 |  | 3.137 ± 0.075 10^-5 cm^2 V^-1 s^-1 | zero | 0.000 ± 0.000 10^-5 cm^2 V^-1 s^-1 |  | 6.89 ± 0.57 |  |  |  |  |  |
| Cc1cc2c(s1)Nc1ccccc1N=C2N1CCN(C)CC1 [Olanzapine, olanzapine] | 1.64 ± 0.04 | -3.37 ± 0.11 | 3.23 ± 0.07 | -4.37 ± 0.12 | 3.28 ± 0.08 | -4.46 ± 0.14 | 33.632 ± 0.036 10^-5 cm^2 V^-1 s^-1 |  | 10.679 ± 0.039 10^-5 cm^2 V^-1 s^-1 |  | 1.241 ± 0.029 10^-5 cm^2 V^-1 s^-1 |  |  | 33.632 ± 0.036 10^-5 cm^2 / V s |  |  |  |  |
| C1COC(NC(C2CC2)C2CC2)=N1 [Rilmenidine, rilmenidine hemifumarate] | 0.92 ± 0.03 | -2.88 ± 0.09 | 0.90 ± 0.03 | -2.35 ± 0.11 | 1.48 ± 0.02 | -2.96 ± 0.06 | 25.350 ± 0.121 10^-5 cm^2 V^-1 s^-1 |  | 22.551 ± 0.029 10^-5 cm^2 V^-1 s^-1 |  | 14.065 ± 0.214 10^-5 cm^2 V^-1 s^-1 |  |  |  |  |  |  |  |
| CCOc1ccccc1OCCN[C@H](C)Cc1ccc(OC)c(S(N)(=O)=O)c1 [Tamsulosin, tamsulosin hydrochloride] | 2.22 ± 0.05 | -4.73 ± 0.13 | 2.75 ± 0.04 | -4.51 ± 0.10 | 3.06 ± 0.09 | -4.97 ± 0.20 | 17.310 ± 0.002 10^-5 cm^2 V^-1 s^-1 |  | 14.444 ± 0.058 10^-5 cm^2 V^-1 s^-1 |  | 2.472 ± 0.133 10^-5 cm^2 V^-1 s^-1 |  |  |  |  |  |  |  |
| CN[C@@H](C)[C@H](O)c1ccccc1 [Ephedrine, ephedrine hydrochloride] | 0.56 ± 0.02 | -2.41 ± 0.08 | 0.57± 0.02 | -2.49 ± 0.09 | 1.01 ± 0.02 | -2.52 ± 0.05 | 25.942 ± 0.032 10^-5 cm^2 V^-1 s^-1 |  | 23.199 ± 0.103 10^-5 cm^2 V^-1 s^-1 |  | 18.047 ± 0.070 10^-5 cm^2 V^-1 s^-1 |  |  |  |  |  |  |  |
| Clc1ccc2nsnc2c1NC1=NCCN1 [Tizanidine, tizanidine hydrochloride] | 0.74 ± 0.02 | -2.65 ± 0.06 | 1.12 ± 0.01 | -2.23 ± 0.03 | 1.34 ± 0.01 | -2.63 ± 0.04 | 24.770 ± 0.035 10^-5 cm^2 V^-1 s^-1 |  | 12.077 ± 0.042 10^-5 cm^2 V^-1 s^-1 | zero | 0.000 ± 0.000 10^-5 cm^2 V^-1 s^-1 |  |  |  |  |  |  |  |
| c1ccc2c(c1)CCCC2C1=NCCN1 (stereo not shown) [Tetrahydrozoline, tetrahydrozoline hydrochloride] | 1.06 ± 0.02 | -2.94 ± 0.05 | 1.08 ± 0.01 | -3.24 ± 0.06 | 1.32 ± 0.03 | -2.99 ± 0.07 | 25.680 ± 0.049 10^-5 cm^2 V^-1 s^-1 |  | 24.299 ± 0.057 10^-5 cm^2 V^-1 s^-1 | 25.05 10^-5 cm^2 / V s | 25.047 ± 0.066 10^-5 cm^2 V^-1 s^-1 |  |  |  | 10.51 ± 0.05 |  |  |  |
| Clc1cccc(Cl)c1N=C1NCCN1 [Clonidine, Clonidine hydrochloride] | 0.82 ± 0.02 | -2.74 ± 0.05 | 0.98 ± 0.01 | -1.82 ± 0.02 | 1.47 ± 0.01 | -2.71 ± 0.03 | 25.952 ± 0.084 10^-5 cm^2 V^-1 s^-1 |  | 19.607 ± 0.132 10^-5 cm^2 V^-1 s^-1 |  | 2.575 ± 0.060 10^-5 cm^2 V^-1 s^-1 |  |  |  |  |  |  |  |
| CCC1(C2=NCCN2)Cc2ccccc2O1 (stereo not shown) [Efaroxan, efaroxan hydrochloride] | 1.31 ± 0.02 | -3.20 ± 0.04 | 1.33± 0.03 | -3.10 ± 0.14 | 1.85 ± 0.01 | -3.38 ± 0.03 | 24.099 ± 0.035 10^-5 cm^2 V^-1 s^-1 |  | 22.704 ± 0.075 10^-5 cm^2 V^-1 s^-1 |  | 16.361 ± 0.178 10^-5 cm^2 V^-1 s^-1 |  |  |  |  | 10.02 |  |  |
| CN[C@@H](C)[C@@H](O)c1ccccc1 [Pseudoephedrine, pseudoephedrine hydrochloride] | 0.60 ± 0.03 | -2.60 ± 0.10 | 0.61 ± 0.02 | -2.67 ± 0.12 | 1.10 ± 0.02 | -2.72 ± 0.07 | 26.633 ± 0.043 10^-5 cm^2 V^-1 s^-1 |  | 23.691 ± 0,051 10^-5 cm^2 V^-1 s^-1 |  | 9.299 ± 0.058 10^-5 cm^2 V^-1 s^-1 |  |  |  |  |  |  |  |
| Cc1cc(C(C)(C)C)cc(C)c1CC1=NCCN1 [Xylometazoline, xylometazoline hydrochloride] | 2.61 ± 0.00 | -4.22 ± 0.01 | 2.59 ± 0.02 | -4.14 ± 0.04 | 2.79 ± 0.08 | -4.17 ± 0.16 | 21.032 ± 0.019 10^-5 cm^2 V^-1 s^-1 |  | 19.943 ± 0.006 10^-5 cm^2 V^-1 s^-1 |  | 20.627 ± 0.015 10^-5 cm^2 V^-1 s^-1 |  |  |  |  |  |  |  |
| N=C(N)NC(=O)c1nc(Cl)c(N)nc1N [Amiloride, Amiloride hydrochloride] | 1.11 ± 0.04 | -3.31 ± 0.09 | 1.05 ± 0.04 | -3.23 ± 0.12 | 0.98 ± 0.04 | -2.74 ± 0.11 | 25.939 ± 0.080 10^-5 cm^2 V^-1 s^-1 |  | 21.786 ± 0.082 10^-5 cm^2 V^-1 s^-1 |  | 6.416 ± 0.022 10^-5 cm^2 V^-1 s^-1 |  |  |  |  |  |  |  |
| C[C@@H]1CCC[C@H](C)N1NC(=O)c1ccc(Cl)c(S(N)(=O)=O)c1 [Clopamide, clopamide] | 2.00 ± 0.02 | -3.61 ± 0.04 | 1.99 ± 0.03 | -3.59 ± 0.08 | 1.87 ± 0.01 | -3.34 ± 0.02 | 0.000 ± 0.000 10^-5 cm^2 V^-1 s^-1 | zero | 0.000 ± 0.000 10^-5 cm^2 V^-1 s^-1 | negative values of effective mobility | -9.640 ± 0.053 10^-5 cm^2 V^-1 s^-1 |  |  | 0 10^-5 cm^2 / V s and 0.000 ± 0.000 10^-5 cm^2 / V s |  |  | 0 10^-5 cm^2 / V s |  |
| CC1Cc2ccccc2N1NC(=O)c1ccc(Cl)c(S(N)(=O)=O)c1 (stereo not shown) [Indapamide, indapamide] | 2.69 ± 0.02 | -4.16 ± 0.06 | 2.55 ± 0.02 | -4.19 ± 0.04 | 2.35 ± 0.03 | -3.78 ± 0.06 | 0.000 ± 0.000 10^-5 cm^2 V^-1 s^-1 |  | 0.000 ± 0.000 10^-5 cm^2 V^-1 s^-1 | negative values of effective mobility | -10.382 ± 0.053 10^-5 cm^2 V^-1 s^-1 |  |  | 0 10^-5 cm^2 / V s and 0.000 ± 0.000 10^-5 cm^2 / V s |  |  |  |  |
| COc1ccccc1OCCNCC(O)COc1cccc2[nH]c3ccccc3c12 (stereo not shown) [Carvedilol, carvedilol] | 3.75 ± 0.04 | -5.84 ± 0.07 | 4.15 ± 0.08 | -5.44 ± 0.13 | 4.21 ± 0.10 | -5.56 ± 0.18 | 18.061 ± 0.029 10^-5 cm^2 V^-1 s^-1 |  | 13.057 ± 0.052 10^-5 cm^2 V^-1 s^-1 |  | 1.693 ± 0.071 10^-5 cm^2 V^-1 s^-1 |  |  |  |  |  |  | 3.75 |
| N=C(N)NC(=O)Cc1c(Cl)cccc1Cl [Guanfacine, guanfacine hydrochloride] | 1.73 ± 0.01 | -3.47 ± 0.03 | 1.92 ± 0.12 | -3.21 ± 0.03 | 2.00 ± 0.00 | -3.35 ± 0.01 | 24.242± 0.002 10^-5 cm^2 V^-1 s^-1 | 5.083 ± 0.025 10^-5 cm^2 / V s | 5.083 ± 0.025 10^-5 cm^2 V^-1 s^-1 | zero | 0.000 ± 0.000 10^-5 cm^2 V^-1 s^-1 |  |  |  |  |  |  |  |

— article PMC11542720, “Modelling of chromatographic and electrophoretic behaviour of imidazoline and alpha adrenergic receptors ligands under different acid-base conditions” (ADMET & DMPK, 2024)
